Assay [1] has as its target T1, cyclooxygenase-1 (U-937 cells) (Homo sapiens, UniProt P23219).
T1 construct: the appropriate number of U-937 cells were removed from spinner cultures and centrifuged; host or cells: U-937 human histiocytic lymphoma cells (intact)
Put plainly: Whole cell cyclooxygenase assay, PGE2 synthesis by U-937 cells in response to exogenous arachidonic acid. In kind it is cell-based. On the procedure:
Such cells are hereinafter described as COX-1 cells. Prior to assay, the appropriate number of COX-1 cells (10^5 to 10^7 cells/ml) are removed from cultures and concentrated using a technique such as by centrifugation at 300× g for 10 minutes. The supernatant is decanted and cells are washed in a suitable buffer. […] Following incubation of human osteosarcoma cells or COX-1 cells in a suitable buffer, a test compound and/or vehicle samples (such as DMSO) is added, and the resulting composition gently mixed. Preferably the assay is performed in triplicate. Arachidonic acid is then added in proportions as described above. […] Control samples should contain ethanol or other vehicle instead of arachidonic acid. […] For osteosarcoma cells, reactions may be stopped by the addition HCl or other acid, preferably combined with mixing, or by the rapid removal of media directly from cell monolayers. For U-937 cells, reactions may be advantageously be performed in multiwell dishes or microcentrifuge tubes and stopped by the addition of HCl or another mineral acid. Typically, samples assayed in 24-multidishes are then transferred to microcentrifuge tubes, and all samples frozen on dry ice. Similarly, samples are typically stored at -20° C. or below prior to analysis of PGE2 levels. […] Samples are then preferably mixed, such as by vortexing, and PGE2 levels measured using a PGE2 enzyme immunoassay, such as is commercially available from CAYMAN. We have advantageously conducted the plating, washing and color development steps as an automated sequence using a BIOMEK 1000 (BECKMAN). […] Levels of PGE2 are calculated from the standard curve, and may optionally determined using BECKMAN IMMUNOFIT EIA/RIA analysis software. […] Inhibition of PGE2 synthesis by test compounds is calculated between PGE2 levels in samples incubated in the absence or presence of […]. […] For routine subculturing, cells were diluted in fresh medium and transferred to fresh flasks. […] The supernatant was decanted and cells washed in 50 ml of HBSS prewarmed to 37° C. Cells were again pelleted at 300× g for 10 minutes and resuspended in prewarmed HBSS to a final cell density of approximately 1.5×10^6 cells/ml. 1 ml aliquots of cell suspension were transferred to 1.5 ml microcentrifuge tubes or 24-well multidishes (Nunclon). […] All assays were performed in triplicate. […] Control samples contained ethanol vehicle instead of arachidonic acid. Samples were again gently mixed and incubated for a further 10 minutes at 37° C. […] For U-937 cells, reactions in multiwell dishes or microcentrifuge tubes were stopped by the addition of 100 μl of 1N HCl, with mixing. Samples assayed in 24-multidishes were then transferred to microcentrifuge tubes, and all samples were frozen on dry ice. Samples were stored at -20° C. prior to analysis of PGE2 levels. […] Samples were then mixed by vortexing, and PGE2 levels measured using a PGE2 enzyme immunoassay (CAYMAN) according to the manufacturers instructions. The plating, washing and colour development steps of this procedure were automated using a BIOMEK 1000 (BECKMAN). […] Levels of PGE2 were calculated from the standard curve determined using BECKMAN IMMUNOFIT EIA/RIA analysis software.

Assay [2] has as its target T2, cyclooxygenase-1 (U-937 microsomes) (Homo sapiens, UniProt P23219).
T2 construct: host or cells: microsomal fraction of U-937 cells
Put plainly: Microsomal cyclooxygenase assay, U-937 microsomes. In kind it is biochemical. The note with it: 20 μM arachidonic acid. The protocol:
COX-1 cells are grown and maintained in culture as described above, washed in a suitable buffer, such as PBS, and cell pellets or concentrates stored, preferably at −80° C. […] The cell homogenate is then concentrated and resuspended. In our preferred procedure the cell homogenate is centrifuged at 10,000× g for 10 minutes at 4° C. The supernatant fraction is then recentrifuged at 100,000× g for 2 hours at 4° C., and the resulting microsomal pellet resuspended in a suitable buffer, such as 0.1 M Tris-HCl, 1 mM EDTA, pH 7.4 to a protein concentration of approximately 1 to 10 mg/ml. Aliquots of osteosarcoma microsomal preparations may be stored at reduced temperature and thawed prior to use.
(§1) Microsomal preparations from Human osteosarcoma and U937 cells are diluted in buffer, such as 0.1 M Tris-HCl, 10 mM EDTA, pH 7.4, (Buffer A) to a protein concentration of 50 to 500 µg/ml. […] Typically, assays are performed in either duplicate or triplicate. Peroxide-free arachidonic acid (CAYMAN) in Buffer A is then added to a final concentration of 20 μM arachidonic acid, followed by incubation, preferably at room temperature for 10 to 60 minutes. Control samples contained ethanol or other vehicle instead of arachidonic acid. Following incubation, the reaction was terminated by addition of HCl or other mineral acid. Prior to analysis of PGE2 levels, samples were neutralized. Levels of PGE2 in samples may be quantitated as described for the whole cell cyclooxygenase assay.
U-937 cells were grown and maintained in culture as described above, washed in PBS, and cell pellets frozen at −80° C. […] The cell homogenate was then centrifuged at 10,000× g for 10 minutes at 4° C. The supernatant fraction was then recentrifuged at 100,000× g for 2 hours at 4° C., and the resulting microsomal pellet resuspended in 0.1 M Tris-HCl, 1 mM EDTA, pH 7.4 to a protein concentration of approximately 4 mg/ml. 500 μl aliquots of osteosarcoma microsomal preparations were stored at −80° C. and thawed on ice immediately prior to use.
All subsequent assay steps, including the dilution of stock solutions of test compounds, were automated using the BIOMEK 100 (BIORAD). 5 μl of test compound or DMSO vehicle was added, with mixing, to 20 μl of buffer A in a 96-well minitube plate (BECKMAN). 200 μl of microsome suspension was then added, followed by mixing and incubation for 5 minutes at room temperature. Assays were performed in either duplicate or triplicate. […] of peroxide-free arachidonic acid (CAYMAN) in buffer A is then added to a final concentration of 20 μM aracidonic acid, with mixing, followed by incubation at room temperature for 40 minutes. Control samples contained ethanol vehicle instead of arachidonic acid. Following the incubation period, the reaction was terminated by the addition of 25 μl of 1N HCl, with mixing. Prior to analysis of PGE2 levels, samples were neutralized by the addition of 25 μl of 1 N NaOH. Levels of PGE2 in samples were quantitated by enzyme immunoassay (CAYMAN) as described for the whole cell cyclooxygenase assay.

In assay [3] the target is T3, cyclooxygenase-2 (osteosarcoma 143.98.2 microsomes) (Homo sapiens, UniProt P35354).
T3 construct: The cell homogenates were then subjected to a differential centrifugation protocol to yield an enriched microsomal preparation; endogenous in cells; host or cells: microsomal fraction of human osteosarcoma 143.98.2 cells
T3 sequence (P35354 18-604): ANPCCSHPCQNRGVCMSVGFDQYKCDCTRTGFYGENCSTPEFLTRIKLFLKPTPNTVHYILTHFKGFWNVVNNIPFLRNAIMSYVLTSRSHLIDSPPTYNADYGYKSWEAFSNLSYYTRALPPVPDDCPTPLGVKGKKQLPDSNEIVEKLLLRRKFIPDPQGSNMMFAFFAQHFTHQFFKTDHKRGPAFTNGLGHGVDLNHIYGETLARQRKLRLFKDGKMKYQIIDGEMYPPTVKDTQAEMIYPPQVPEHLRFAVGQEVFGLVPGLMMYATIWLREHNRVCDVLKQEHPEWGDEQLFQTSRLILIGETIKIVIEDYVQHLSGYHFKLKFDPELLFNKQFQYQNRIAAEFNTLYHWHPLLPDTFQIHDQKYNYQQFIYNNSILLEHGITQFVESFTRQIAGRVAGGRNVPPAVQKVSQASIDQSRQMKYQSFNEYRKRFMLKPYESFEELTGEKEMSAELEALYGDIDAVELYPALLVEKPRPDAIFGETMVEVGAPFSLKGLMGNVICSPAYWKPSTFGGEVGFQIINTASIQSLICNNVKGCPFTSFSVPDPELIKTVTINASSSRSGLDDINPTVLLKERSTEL
As to the kind of experiment: Microsomal cyclooxygenase assay, osteosarcoma 143.98.2 microsomes. In kind it is biochemical. Conditions: 20 μM arachidonic acid. The protocol: Human osteosarcoma cells may be grown and maintained in culture as described above. Approximately 10^5 to 10^7 cells are plated in tissue culture plates such as available from NUNCLON and maintained in culture for 2 to 7 days. Cells may be washed with a suitable buffer such phosphate buffered saline, (PBS), pH 7.2. Cells are then removed from the plate, preferably by scraping into PBS. Samples may then be concentrated, such as by centrifuging at 400× g for 10 minutes at 4° C. Cell pellets or other concentrates are either stored at a suitable reduced temperature such as −80° C., or processed immediately. All further manipulations of the cells are preferably performed at 0-4° C. […] Enriched microsomal preparations are then prepared, such as by differential centrifugation to yield an enriched microsomal preparation. In our preferred procedure, the first step consists of four sequential centrifugations of the cell homogenate at 10,000× g for 10 min at 4° C. After each centrifugation at 10,000×.g, the supernatant is retained and recentrifuged. Following the fourth centrifugation, the supernatant is centrifuged at 100,000× g for 60-90 min at 4° C. to pellet the microsomal fraction. […] The resulting microsomal suspension is recentrifuged such as at 100,000× g for 90 min at 4° C. to recover the microsomes. Following this centrifugation the microsomal pellet is resuspended in a stabilizing buffer, such as 0.1 M Tris-Cl, pH 7.4, containing 10 mM EDTA at a protein concentration of approximately 2-5 mg/ml. Aliquots of osteosarcoma microsomal preparations may be stored at low temperature, such as at −80° C. and thawed prior to use.
as §1
Cells were washed twice with 100 ml of phosphate buffered saline, pH 7.2, (PBS) and then scraped from the plate with a sterile rubber scraper into PBS. Samples were then centrifuged at 400× g for 10 minutes at 4° C. Cell pellets were either stored at −80° C. until use or processed immediately. All further manipulations of the cells were performed at 0-4° C. […] The cell homogenates were then subjected to a differential centrifugation protocol to yield an enriched microsomal preparation. The first step consisted of four sequential centrifugations of the cell homogenate at 10,000× g for 10 min at 4° C. After each centrifugation at 10,000× g the supernatant was retained and recentrifuged. Following the fourth centrifugation, the supernatant was centrifuged at 100,000× g for 60-90 min at 4° C. to pellet the microsomal fraction. […] The resulting microsomal suspension was recentrifuged at 100,000× g for 90 min at 4° C. to recover the microsomes. […] 500 μl aliquots of osteosarcoma microsomal preparations were stored at −80° C. and thawed on ice immediately prior to use.
All subsequent assay steps, including the dilution of stock solutions of test compounds, were automated using the BIOMEK 100 (BIORAD). 5 μl of test compound or DMSO vehicle was added, with mixing, to 20 μl of buffer A in a 96-well minitube plate (BECKMAN).

For a further assay, the system named is osteosarcoma 143 cells. Put plainly: PGE2 synthesis by osteosarcoma 143 cells in response to arachidonic acid after treatment with growth factors/cytokines. Conditions: 10 pg/ml; within a 3-hour period, 1% serum; relative to cells grown in the absence of these factors. It counts as cell-based, human.

Nine compounds from US6689596B2, “High level expression of human cyclooxygenase-2” (Merck & Co., Inc., priority 1992, dated 2004) can be followed below.

T1 sequence (P23219 24-599): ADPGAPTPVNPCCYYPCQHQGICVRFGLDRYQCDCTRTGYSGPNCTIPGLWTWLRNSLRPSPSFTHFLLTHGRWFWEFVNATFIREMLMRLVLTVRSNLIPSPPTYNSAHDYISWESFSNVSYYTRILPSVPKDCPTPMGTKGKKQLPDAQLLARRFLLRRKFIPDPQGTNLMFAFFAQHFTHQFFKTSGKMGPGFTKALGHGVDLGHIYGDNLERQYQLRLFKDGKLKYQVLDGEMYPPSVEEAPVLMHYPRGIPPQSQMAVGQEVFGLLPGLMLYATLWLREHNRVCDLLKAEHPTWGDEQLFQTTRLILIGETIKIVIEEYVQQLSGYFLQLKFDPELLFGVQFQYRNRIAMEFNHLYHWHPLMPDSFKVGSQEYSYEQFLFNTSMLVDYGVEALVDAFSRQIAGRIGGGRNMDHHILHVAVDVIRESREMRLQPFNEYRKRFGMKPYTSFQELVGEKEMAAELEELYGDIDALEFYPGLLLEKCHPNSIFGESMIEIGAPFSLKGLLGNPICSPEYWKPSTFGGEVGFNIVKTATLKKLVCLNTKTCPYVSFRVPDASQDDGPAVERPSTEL
T2 sequence (P23219 24-599): as above

The inhibition is the relative decrease from the control value, in per cent. A higher inhibition goes with a strong effect. For the compound `CS(=O)(=O)Nc1ccc([N+](=O)[O-])cc1OC1CCCCC1` [NS-398], the “U-937 PGE2” value in assay [1] (sample 0.3 nM) came to 18.3 ng/10^6 cells; in assay [1] (sample 1.0 nM), 17.7 ng/10^6 cells; in assay [1] (sample 3.0 nM), 18.3 ng/10^6 cells; in assay [1] (sample 10 nM), 20.4 ng/10^6 cells; in assay [1] (sample 30.0 nM), 17.7 ng/10^6 cells; in assay [1] (sample 100 nM), 18.9 ng/10^6 cells. This compound had an inhibition at 0.1 µM in assay [2] (drug 100 nM) of 0%. Besides, the inhibition at 3 µM in assay [2] (drug 3 uM) came to 0%.
In assay [2] (drug 100 nM), `CSc1ccc(/C=C2/C(C)=C(CC(=O)O)c3cc(F)ccc32)cc1` [Sulindac sulfide] displayed an inhibition at 0.1 µM of 0%. Further, the inhibition at 3 µM in assay [2] (drug 3 uM) amounted to 4%.
As for `CC(=O)c1ccc(NS(C)(=O)=O)c(Oc2ccc(F)cc2F)c1` [FK-3311], the “143.98.2 % Inhibition” value in assay [3] (drug 100 nM) is listed as 20%; in assay [3] (drug 3 uM) it was 26%. The “U-937 % Inhibition” value in assay [2] (drug 100 nM) and in assay [2] (drug 3 uM) was 0% each time.
`Cc1cc(CC(=O)O)n(C)c1C(=O)c1ccc(Cl)cc1` [Zomipirac]: the figures for the “143.98.2 % Inhibition” value in assay [3] (drug 100 nM) and in assay [3] (drug 3 uM) were 45% and 66%, respectively. In addition, the “U-937 % Inhibition” value in assay [2] (drug 100 nM) worked out at 30%; in assay [2] (drug 3 uM) it was 67%.
For the compound `CC(C(=O)O)c1ccc(-c2ccccc2)c(F)c1` (centres unmarked) [Fluribprofen], the “U-937 % Inhibition” value is recorded as 57% in assay [2] (drug 100 nM) and 89% in assay [2] (drug 3 uM).
Consider “IL1-β: human recombinant IL1-β (R and D systems Inc.)”, for which the “levels of PGE2 synthesis by osteosarcoma 143 cells in response to arachidonic acid” value in the assay on osteosarcoma 143 cells is “increased”.
Consider `O=C(O)c1ccccc1Nc1cccc(C(F)(F)F)c1` [Flufenamic], for which the “143.98.2 % Inhibition” value is reported as 16% in assay [3] (drug 100 nM) and 36% in assay [3] (drug 3 uM). For the same compound, the “U-937 % Inhibition” value in assay [2] (drug 100 nM) was 5%; in assay [2] (drug 3 uM) it was 0%.
In the case of `CS(=O)(=O)Nc1cc2c(cc1Oc1ccc(F)cc1F)C(=O)CC2` [Flosulide], in assay [2] (drug 100 nM), the inhibition at 0.1 µM came to 0%. The compound further came in with an inhibition at 3 µM in assay [2] (drug 3 uM) of 0%.
As to `CS(=O)(=O)c1ccc(-c2cc(Br)sc2-c2ccc(F)cc2)cc1` [DuP-697], testing at 0.1 µM in assay [2] (drug 100 nM) gave an inhibition of 6%. This compound returned an inhibition at 3 µM in assay [2] (drug 3 uM) of 48%.
